≈ marks a conversion by molar mass, not a printed value.
Legend:
[1] = tested on: EBC-1; experiment: Anticancer activity against human EBC-1 cells assessed as cell growth inhibition incubated for 72 hrs by resazurin based spectrophotometer analysis; assay type: functional; details: EBC-1, 72 h
[2] = tested on: Leishmania major; experiment: Antibacterial activity against Leishmania major assessed as bacterial growth inhibition incubated for 72 hrs by MTT assay; assay type: functional, organism-based
[3] = tested on: Leishmania amazonensis; experiment: […] inhibition incubated for 72 hrs by Giemsa stain based microscopic analysis; assay type: functional, organism-based
[4] = tested on: Trypanosoma cruzi; experiment: Antibacterial activity against Trypanosoma cruzi Y assessed as fold change in bacterial growth incubated for 24 hrs; assay type: functional
[5] = tested on: Enterococcus faecalis; experiment: Antibacterial activity against Enterococcus faecalis ATCC 29212 assessed as bacterial growth inhibition incubated for 20 to 24 hrs by microdilution assay; assay type: functional; details: time 20-24 hrs
[6] = tested on: Staphylococcus aureus; experiment: Antibacterial activity against Staphylococcus aureus HEMSA assessed as bacterial growth inhibition incubated for 20 to 24 hrs by microdilution assay; assay type: functional; details: time 20-24 hrs
[7] = tested on: Staphylococcus aureus; experiment: Antibacterial activity against Staphylococcus aureus ATCC 2592 assessed as bacterial growth inhibition incubated for 20 to 24 hrs by microdilution assay; assay type: functional; details: time 20-24 hrs
[8] = tested on: Enterococcus faecalis; experiment: Antibacterial activity against Enterococcus faecalis assessed as bacterial growth inhibition incubated for 24 hrs by microtitre analysis; assay type: functional
[9] = tested on: Bacillus cereus; experiment: […] activity against Bacillus cereus assessed as bacterial growth inhibition incubated for 24 hrs by microtitre analysis; assay type: functional
[10] = tested on: Staphylococcus saprophyticus; experiment: Antibacterial activity against Staphylococcus saprophyticus assessed as bacterial growth inhibition incubated for 24 hrs by microtitre analysis; assay type: functional
[11] = tested on: Bacillus cereus; experiment: Antibacterial activity against Bacillus cereus assessed as bacterial growth inhibition incubated for 24 hrs by microtitre analysis; assay type: functional
[12] = tested on: HeLa; experiment: Anticancer activity against human HeLa assessed as cell growth inhibition; assay type: functional, cell-based
[13] = tested on: HeLa; experiment: Anticancer activity against human HeLa cells assessed as cell growth inhibition; assay type: functional, cell-based
[14] = tested on: A-375; experiment: Anticancer activity against human A-375 cells assessed as cell growth inhibition incubated for 72 hrs by fluorescence based MTT assay; assay type: functional; details: A-375, 72 h
[15] = tested on: MCF7; experiment: Anticancer activity against human MCF7 cells assessed as cell growth inhibition incubated for 72 hrs by fluorescence based MTT assay; assay type: functional; details: MCF7, 72 h
[16] = tested on: HepG2; experiment: Anticancer activity against human HepG2 cells assessed as cell growth inhibition incubated for 72 hrs by fluorescence based MTT assay; assay type: functional; details: HepG2, 72 h
[17] = tested on: Pseudomonas aeruginosa; experiment: Antibacterial activity against Pseudomonas aeruginosa PA 54 assessed as bacterial growth inhibition incubated for 20 hrs by […]; assay type: functional, organism-based
[18] = tested on: Klebsiella pneumoniae; experiment: Antibacterial activity against Klebsiella pneumoniae KP 21513017 assessed as bacterial growth inhibition incubated for 20 hrs by […]; assay type: functional, organism-based; details: KP 21513017, 20 h
[19] = tested on: Pseudomonas aeruginosa; experiment: Antibacterial activity against Pseudomonas aeruginosa PA 58 assessed as bacterial growth inhibition incubated for 20 hrs by […]; assay type: functional
[20] = tested on: Escherichia coli; experiment: Antibacterial activity against Escherichia coli NCTC 13351 assessed as bacterial growth inhibition incubated for 20 hrs by […]; assay type: functional
[21] = tested on: Acinetobacter; experiment: Antibacterial activity against Acinetobacter AC 2151300 assessed as bacterial growth inhibition incubated for 20 hrs by […]; assay type: functional, organism-based; details: AC 2151300, 20 h
[22] = tested on: Staphylococcus aureus; experiment: Antibacterial activity against Methicillin resistant Staphylococcus aureus assessed as bacterial growth inhibition incubated for 20 hrs by […]; assay type: functional
[23] = tested on: Acinetobacter; experiment: Antibacterial activity against Acinetobacter AC 1995594 assessed as bacterial growth inhibition incubated for 20 hrs by […]; assay type: functional, organism-based; details: AC 1995594, 20 h
[24] = tested on: Escherichia coli; experiment: Antibacterial activity against Escherichia coli EC 1227107 assessed as bacterial growth inhibition incubated for 20 hrs by […]; assay type: functional
[25] = tested on: Klebsiella pneumoniae; experiment: Antibacterial activity against Klebsiella pneumoniae NRZ-00103 assessed as bacterial growth inhibition incubated for 20 hrs by […]; assay type: functional, organism-based; details: NRZ-00103, 20 h
[26] = tested on: Escherichia coli; experiment: Antibacterial activity against Escherichia coli EC 2151612 assessed as bacterial growth inhibition incubated for 20 hrs by […]; assay type: functional
[27] = tested on: Pseudomonas aeruginosa; experiment: Antibacterial activity against Pseudomonas aeruginosa ATCC 27853 assessed as bacterial growth inhibition incubated for 20 hrs by […]; assay type: functional, organism-based; details: ATCC 27853, 20 h
[28] = tested on: Acinetobacter; experiment: Antibacterial activity against Acinetobacter AB 4184/2/5 assessed as bacterial growth inhibition incubated for 20 hrs by […]; assay type: functional, organism-based; details: AB 4184/2/5, 20 h
[29] = tested on: Pseudomonas aeruginosa; experiment: Antibacterial activity against Pseudomonas aeruginosa PA T18 assessed as bacterial growth inhibition incubated for 20 hrs by […]; assay type: functional, organism-based; details: PA T18, 20 h
[30] = tested on: Klebsiella pneumoniae; experiment: Antibacterial activity against Klebsiella pneumoniae KP 1963584 assessed as bacterial growth inhibition incubated for 20 hrs by […]; assay type: functional, organism-based; details: KP 1963584, 20 h
[31] = tested on: Escherichia coli; experiment: Antibacterial activity against Escherichia coli EC 1995591 assessed as bacterial growth inhibition incubated for 20 hrs by […]; assay type: functional
[32] = tested on: PC-3; experiment: Anticancer activity against human PC-3 cells assessed as cell growth inhibition incubated for 24 to 96 hrs by MTT assay; assay type: functional, cell-based
[33] = tested on: DU-145; experiment: Anticancer activity against human DU-145 cells assessed as cell growth inhibition incubated for 24 to 96 hrs by MTT assay; assay type: functional, cell-based
[34] = tested on: EJ; experiment: Anticancer activity against human EJ cells assessed as cell growth inhibition incubated for 72 hrs by MTT assay; assay type: functional, cell-based
[35] = tested on: HeLa; experiment: Anticancer activity against human HeLa cells assessed as cell growth inhibition incubated for 72 hrs by MTT assay; assay type: functional, cell-based
[36] = tested on: SH-SY5Y; experiment: Antitumor activity against human SH-SY5Y cells assessed as induction of apoptosis by propidium iodide staining based flow cytometry analysis; assay type: functional, cell-based
[37] = tested on: Candida albicans; experiment: Antifungal activity against Candida albicans assessed as fungal growth inhibition incubated by microtitre assay; assay type: functional
[38] = tested on: Aspergillus; experiment: Antifungal activity against Aspergillus assessed as fungal growth inhibition incubated by microtitre assay; assay type: functional
[39] = tested on: Fusarium; experiment: Antifungal activity against Fusarium assessed as fungal growth inhibition incubated by microtitre assay; assay type: functional
[40] = tested on: Trypanosoma cruzi; experiment: Antibacterial activity against Trypanosoma cruzi Dm28c assessed as inhibition of bacterial growth incubated for 72 hrs by microplate reader analysis; assay type: functional, organism-based
[41] = tested on: Trypanosoma cruzi; experiment: Antibacterial activity against Trypanosoma cruzi Y assessed as bacterial growth inhibition incubated for 24 hrs; assay type: functional, organism-based
[42] = biological target: Carbonic anhydrase 7 (Homo sapiens, UniProt P43166); experiment: Inhibition of human carbonic anhydrase 7 assessed as inhibition constant by a stopped flow CO2 hydrase assay
[43] = Anticancer activity against human SWO-38 cells assessed as cell growth inhibition incubated for 48 hrs by MTT assay; assay type: functional, cell-based; details: SWO-38, 48 h
[44] = tested on: Aspergillus niger; experiment: […] inhibition incubated for 24 hrs by agar disc diffusion assay; assay type: functional
[45] = Inhibition of Vibrio cholerae alpha carbonic anhydrase assessed as inhibition constant by phenol red-based hydrase assay
[46] = tested on: U-266; experiment: Anticancer activity against human U-266 cells assessed as cell growth inhibition incubated for 24 hrs by MTS assay; assay type: functional, cell-based; details: U-266, 24 h
[47] = tested on: MIA PaCa-2; experiment: Anticancer activity against human MIA PaCa-2 cells xenografted in female Foxn1nu mouse assessed as reduction in tumor growth po,administered once daily for 28 days; assay type: functional; details: time 28 day
[48] = Inhibition of Vibrio cholerae carbonic anhydrase alpha assessed as inhibition constant by stopped-flow CO2 hydration assay
[49] = biological target: Carbonic anhydrase 9 (Homo sapiens, UniProt Q16790); experiment: Inhibition of human carbonic anhydrase 9 assessed as inhibition constant
[50] = biological target: Carbonic anhydrase 12 (Homo sapiens, UniProt O43570); experiment: Inhibition of human carbonic anhydrase 12 assessed as inhibition constant
[51] = biological target: Carbonic anhydrase 2 (Homo sapiens, UniProt P00918); experiment: Inhibition of human carbonic anhydrase 2 assessed as inhibition constant
[52] = biological target: Carbonic anhydrase 1 (Homo sapiens, UniProt P00915); experiment: Inhibition of human carbonic anhydrase 1 assessed as inhibition constant
[53] = tested on: Calu-1; experiment: Anticancer activity against human HTB-54 cells assessed as cell growth inhibition incubated for 48 hrs by MTT assay; assay type: functional, cell-based; details: Calu-1, 48 h
[54] = tested on: NCI-H1299; experiment: Anticancer activity against human H1299 cells assessed as cell growth inhibition incubated for 48 hrs by MTT assay; assay type: functional, cell-based; details: NCI-H1299, 48 h

Carbonic anhydrase 12, sequence (O43570 whole entry): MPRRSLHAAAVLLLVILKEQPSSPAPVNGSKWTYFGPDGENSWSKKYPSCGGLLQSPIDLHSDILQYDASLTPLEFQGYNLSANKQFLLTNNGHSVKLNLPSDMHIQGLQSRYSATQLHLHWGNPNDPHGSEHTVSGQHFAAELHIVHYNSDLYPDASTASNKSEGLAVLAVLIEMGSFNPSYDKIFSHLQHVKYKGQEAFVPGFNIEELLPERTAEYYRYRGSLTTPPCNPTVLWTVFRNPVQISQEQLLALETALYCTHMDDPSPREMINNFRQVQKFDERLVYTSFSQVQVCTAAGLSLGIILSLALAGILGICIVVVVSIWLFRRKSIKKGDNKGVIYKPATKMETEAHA
Carbonic anhydrase 7, sequence (P43166 whole entry): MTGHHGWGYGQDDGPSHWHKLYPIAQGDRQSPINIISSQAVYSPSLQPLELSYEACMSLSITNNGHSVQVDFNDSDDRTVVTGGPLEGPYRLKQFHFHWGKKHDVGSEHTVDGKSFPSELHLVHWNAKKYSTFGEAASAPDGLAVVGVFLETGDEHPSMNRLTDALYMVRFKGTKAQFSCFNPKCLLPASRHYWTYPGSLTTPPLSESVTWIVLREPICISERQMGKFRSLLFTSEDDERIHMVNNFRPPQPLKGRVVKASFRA
Carbonic anhydrase 1, sequence (P00915 whole entry): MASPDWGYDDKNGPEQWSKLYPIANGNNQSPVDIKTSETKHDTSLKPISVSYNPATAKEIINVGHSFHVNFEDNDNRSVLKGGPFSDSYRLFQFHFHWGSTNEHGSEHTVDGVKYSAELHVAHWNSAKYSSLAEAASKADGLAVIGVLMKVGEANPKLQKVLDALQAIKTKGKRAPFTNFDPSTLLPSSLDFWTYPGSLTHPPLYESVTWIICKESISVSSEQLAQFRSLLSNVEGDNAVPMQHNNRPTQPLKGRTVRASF

## CN(C)C(SCCCCCCN(C)c1ccc(-n2[se]c3ccccc3c2=O)cc1)=[N+](C)C
[1]
  IC50: < 20 µM

## [Se]=C=NCCCCCCC1Cc2cccc3cccc(c23)C1
[2]
  IC50: 0.0301 µM
[3]
  IC50: 0.28 µM

## CC1(C)OC2=C(CC1[Se]c1ccc(F)cc1)C(=O)C(=O)c1ccccc12 (stereo not given)
[4]
  fold change (FC): 2.6

## CC(=O)C[Se]C(=O)c1ccc(Cl)cc1
[5]
  MIC: 12.5 µM (≈ 3.44 µg/mL)
[6]
  MIC: 3.91 µM (≈ 1.08 µg/mL)
[7]
  MIC: 3.12 µM (≈ 0.86 µg/mL)

## c1csc([Se][Se]c2cccs2)c1
[8]
  MIC: 96.8 µg/mL (≈ 298 µM)
[9]
  MIC: 24.2 µg/mL (≈ 74.6 µM)
[10]
  MIC: 96.8 µg/mL (≈ 298 µM)
[11]
  MIC: 24.2 µg/mL (≈ 74.6 µM)

## COC(CNC(=[Se])Nc1ccc([N+](=O)[O-])cc1)c1ccc(O)c(O)c1 (stereo not given)
[12]
  IC50: 3.76 µM
[13]
  IC50: 1.8 µM

## O=c1[nH]c(=O)c2n[se]nc2[nH]1
[14]
  IC50: 14.3 µM
[15]
  IC50: 46 µM
[16]
  IC50: 19.6 µM

## CC(C)(O)c1[se][n+]2ccccc2c1Br.[Cl-]
[17]; PA 54, 20 h
  IC50: 0.31 µg/mL
[17]; PA 54, time 20 hrs
  MIC: 0.31 µg/mL
[18]
  IC50: 0.31 µg/mL
[19]
  MIC: 0.31 µg/mL
[20]
  MIC: 0.31 µg/mL
[21]
  IC50: 0.31 µg/mL
[22]
  MIC: 0.31 µM
[23]
  IC50: 0.31 µg/mL
[24]
  MIC: 0.31 µg/mL
[25]
  IC50: 0.31 µg/mL
[26]
  MIC: 0.31 µg/mL
[27]
  IC50: 0.31 µg/mL
[28]
  IC50: 0.31 µg/mL
[29]
  IC50: 0.31 µg/mL
[30]
  IC50: 0.31 µg/mL
[31]
  MIC: 0.31 µg/mL

## O=c1c2ccccc2[se]n1CCn1[se]c2ccccc2c1=O [ETHASELEN]
[32]
  IC50: 17.8 µM
[33]
  IC50: 15.5 µM

## COc1ccc(-c2nc3ccc(-c4ccc5n[se]nc5c4)cc3[nH]2)cc1
[34]
  IC50: 1.48 µM

## O=[N+]([O-])c1ccc2n[se]nc2c1
[35]
  IC50: 4.8 µM

## c1ccc([Se][Se]c2ccccc2)cc1
[36]
  IC50: 30 µM
[37]
  MIC: 4 µg/mL (≈ 12.8 µM)
[38]
  MIC: 0.5 µg/mL (≈ 1.6 µM)
[39]
  MIC: 2 µg/mL (≈ 6.41 µM)

## O=C(Cn1ccnc1[N+](=O)[O-])NCc1ccccc1 [BENZNIDAZOLE]
[40]
  IC50: 12.5 µM
[41]
  IC50: 104 µM

## Cc1ccc([Se]CC(C)N)cc1 (stereo not given)
[42]
  Ki: 10.4 µM

## Nc1ccc(-c2ccc3n[se]nc3c2)cc1N
[43]
  IC50: 22.5 µM

## CCc1ccccc1-n1c(=[Se])n(C(c2ccccc2)c2ccccc2)c2ccccc21
[44]
  inhibition zone (IZ): 27.01 mm

## NS(=O)(=O)c1ccc([Se]CCc2ccccc2)cc1
[45]
  Ki: 0.0043 µM

## O=c1c2ccccc2[se]n1-c1ccccc1 [EBSELEN]
[46]
  IC50: 40 µM
[47]
  inhibition (INH): 58%

## NS(=O)(=O)c1ccc(CCNC(=[Se])NC(=O)c2ccc3c(c2)OCO3)cc1
[48]
  Ki: 0.0003 µM

## NS(=O)(=O)c1ccc(CCNC(=O)C[Se]c2ccccc2)cc1
[49]
  Ki: 0.0047 µM
[50]
  Ki: 0.0038 µM
[51]
  Ki: 0.0049 µM
[52]
  Ki: 0.0642 µM

## Cc1ccc(NC(=[Se])NC(=O)c2ccc3c(c2)OCO3)cc1
[53]
  IC50: 5.9 µM
[54]
  IC50: 1.5 µM
